Earlier results as cited in patent publication US20230399688A1, “COMPOSITIONS AND M[…] FOR COUPLED CELL-FREE TRANSCRIPTION-T[…] PROTEIN SYNTHESIS AND METHODS FOR USING THEM” (GENOMATICA, INC., priority 2015, published 2023).

Tested on: human cancer cell lines
Conditions: in comparison to the parent drug, MTM

## CO[C@@H]([C@@H]1Cc2cc3cc(O[C@H]4C[C@@H](O[C@H]5C[C@@H](O)[C@H](O)[C@@H](C)O5)[C@H](O)[C@@H](C)O4)c(C)c(O)c3c(O)c2C(=O)[C@H]1O[C@H]1C[C@@H](O[C@H]2C[C@@H](O[C@H]3C[C@](C)(O)[C@H](O)[C@@H](C)O3)[C@@H](O)[C@@H](C)O2)[C@H](O)[C@@H](C)O1)[C@@H](O)C(C)=O [MTM-SK, mithramycin SK]
  therapeutic index: improved therapeutic index
